Biological target: T1, ABCB1 (P-glycoprotein/P-gp/MDR1) (Homo sapiens, UniProt P08183)
T1 construct: full-length ABCB1 overexpressed in High Five insect cells; crude membranes
Assay: vanadate-sensitive ATPase assay, inorganic phosphate release, ABCB1 membranes
Format: biochemical
Conditions: High Five membranes 100 µg/mL, 12 mM Mg-ATP, 37 °C, 0.01-5 µM

T1 sequence (P08183 whole entry): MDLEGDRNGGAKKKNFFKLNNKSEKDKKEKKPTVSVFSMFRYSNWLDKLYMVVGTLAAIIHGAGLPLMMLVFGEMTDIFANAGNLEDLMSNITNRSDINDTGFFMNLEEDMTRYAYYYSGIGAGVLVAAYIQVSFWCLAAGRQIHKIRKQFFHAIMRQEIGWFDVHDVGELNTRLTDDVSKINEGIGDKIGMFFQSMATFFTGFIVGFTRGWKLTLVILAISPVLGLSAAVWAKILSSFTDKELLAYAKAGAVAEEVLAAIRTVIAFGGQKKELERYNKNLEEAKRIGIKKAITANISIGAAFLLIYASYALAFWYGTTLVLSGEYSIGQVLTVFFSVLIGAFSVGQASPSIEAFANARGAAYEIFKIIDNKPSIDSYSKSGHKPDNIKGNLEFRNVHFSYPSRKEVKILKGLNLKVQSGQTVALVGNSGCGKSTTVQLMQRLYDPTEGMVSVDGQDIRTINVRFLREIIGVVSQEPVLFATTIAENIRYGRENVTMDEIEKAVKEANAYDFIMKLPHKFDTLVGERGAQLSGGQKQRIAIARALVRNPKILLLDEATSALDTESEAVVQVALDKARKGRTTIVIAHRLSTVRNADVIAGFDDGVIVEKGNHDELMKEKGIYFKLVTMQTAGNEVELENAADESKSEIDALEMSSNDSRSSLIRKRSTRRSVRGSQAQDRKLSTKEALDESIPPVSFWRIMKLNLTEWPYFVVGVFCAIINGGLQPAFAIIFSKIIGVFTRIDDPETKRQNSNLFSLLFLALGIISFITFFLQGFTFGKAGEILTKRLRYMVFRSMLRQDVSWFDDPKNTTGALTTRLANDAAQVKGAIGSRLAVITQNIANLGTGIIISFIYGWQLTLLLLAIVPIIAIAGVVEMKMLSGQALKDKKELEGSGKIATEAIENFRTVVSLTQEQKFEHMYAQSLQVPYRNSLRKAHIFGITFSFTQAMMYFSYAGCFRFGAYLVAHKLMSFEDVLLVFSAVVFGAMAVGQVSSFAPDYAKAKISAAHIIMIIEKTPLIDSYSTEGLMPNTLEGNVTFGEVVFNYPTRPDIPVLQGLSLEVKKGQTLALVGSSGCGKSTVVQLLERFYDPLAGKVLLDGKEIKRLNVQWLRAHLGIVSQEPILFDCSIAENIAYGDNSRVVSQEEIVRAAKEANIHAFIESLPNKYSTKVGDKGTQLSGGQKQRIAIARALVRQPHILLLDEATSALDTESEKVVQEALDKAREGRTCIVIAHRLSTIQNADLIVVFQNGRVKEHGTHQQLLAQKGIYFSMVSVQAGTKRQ

Structure (SMILES): C=C(F)C(=O)N1CCN(c2nc(OC[C@@H]3CCCN3C)nc3c2CCN(c2cccc4cccc(Cl)c24)C3)C[C@@H]1CC#N [MRTX849]
- ATPase stimulation: MRTX849- stimulated activity of ABCB1 ATPase was dose-dependent

Source: article PMC9472360, “Adagrasib, a KRAS G12C inhibitor, reverses the multidrug resistance mediated by ABCB1 in vitro and in vivo” (Cell Communication and Signaling : CCS, 2022)
